Results taken from patent US6737383B1, “Herbicidal oxadiazolidines” (priority 1999, dated 2004).

Columns and labels:
bedstraw = experiment: Test B pre/postemergence bedstraw; assay type: in vivo, Galium aparine
Procedure, shortened: (§1)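 Test chemicals in a non-phytotoxic solvent mixture with surfactant were sprayed preemergence onto planted seeds and postemergence onto plants 2 to 18 cm tall (1- to 4-leaf stage). After twelve to sixteen days in a greenhouse, injury was visually rated against untreated controls from 0 (no effect) to 10 (complete control).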

blackgrass = experiment: Test B pre/postemergence blackgrass; assay type: in vivo, Alopecurus myosuroides
Procedure, shortened: as §1

surinam grass = experiment: Test B pre/postemergence surinam grass; assay type: in vivo, Brachiaria decumbens
Procedure, shortened: as §1

cocklebur = experiment: Test B pre/postemergence cocklebur; assay type: in vivo, Xanthium strumarium
Procedure, shortened: as §1

corn = experiment: Test B pre/postemergence corn; assay type: in vivo, Zea mays
Procedure, shortened: as §1

crabgrass = experiment: Test B pre/postemergence crabgrass; assay type: in vivo, Digitaria sanguinalis
Procedure, shortened: as §1

giant foxtail = experiment: Test B pre/postemergence giant foxtail; assay type: in vivo, Setaria faberii; settings: for Plant response rating, Giant foxtail: scale of 0 to 10 where 0 is no effect and 10 is complete control
Procedure, shortened: as §1

pigweed = experiment: Test B pre/postemergence pigweed; assay type: in vivo, Amaranthus retroflexus; settings: for Plant response rating, Redroot pigweed: scale of 0 to 10 where 0 is no effect and 10 is complete control
Procedure, shortened: as §1

soybean = experiment: Test B pre/postemergence soybean; assay type: in vivo, Glycine max; settings: for Plant response rating, Soybean: scale of 0 to 10 where 0 is no effect and 10 is complete control
Procedure, shortened: as §1

sugar beet = experiment: Test B pre/postemergence sugar beet; assay type: in vivo, Beta vulgaris; settings: for Plant response rating, Sugarbeets: scale of 0 to 10 where 0 is no effect and 10 is complete control
Procedure, shortened: as §1

velvetleaf = experiment: Test B pre/postemergence velvetleaf; assay type: in vivo, Abutilon theophrasti; settings: for Plant response rating, Velvetleaf: scale of 0 to 10 where 0 is no effect and 10 is complete control
Procedure, shortened: as §1

wild oat = experiment: Test B pre/postemergence wild oat; assay type: in vivo, Avena fatua; settings: for Plant response rating, Wild oats: scale of 0 to 10 where 0 is no effect and 10 is complete control
Procedure, shortened: as §1

purple nutsedge = experiment: Test B pre/postemergence purple nutsedge; assay type: in vivo, Cyperus rotundus; settings: for Plant response rating, Nutsedge: scale of 0 to 10 where 0 is no effect and 10 is complete control
Procedure, shortened: as §1

rice = experiment: Test B flood test rice; assay type: in vivo, Oryza sativa
Procedure, shortened: (§2)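 Each value is a visual injury score relative to controls, with 10 meaning complete control and 0 no effect. Evaluation took place twelve to sixteen days after the 2-leaf-stage plants were treated and kept in the greenhouse.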

smallflower flatsedge = experiment: Test B flood test smallflower flatsedge; assay type: in vivo, Cyperus difformis
Procedure, shortened: as §2

bamyardgrass = experiment: Test B flood test barnyardgrass; assay type: in vivo, Echinochloa crus-galli
Procedure, shortened: as §2

[1] = Postemergence, Rate 250 g/ha, scale 0 to 10
[2] = Preemergence, Rate 250 g/ha, scale 0 to 10, 0 is no effect, 10 is complete control
[3] = Preemergence, Rate 500 g/ha, scale 0 to 10, 0 is no effect, 10 is complete control
[4] = Rate 62 g/ha, Postemergence, scale 0 to 10 (0 no effect, 10 complete control)
[5] = Rate 125 g/ha, Postemergence, scale 0 to 10, 0 is no effect, 10 is complete control
[6] = Postemergence, Rate 500 g/ha, scale of 0 to 10 where 0 is no effect and 10 is complete control
[7] = Preemergence, Rate 62 g/ha, scale of 0 to 10 where 0 is no effect and 10 is complete control
[8] = Preemergence, Rate 125 g/ha, scale of 0 to 10 where 0 is no effect and 10 is complete control
[9] = Rate 62 g/ha, flood test species, Pre-emergence, visual evaluation after twelve to sixteen days
[10] = Rate 125 g/ha, under heading Pre-emergence, flood test species, visual evaluation after twelve to sixteen days
[11] = Rate 250 g/ha, Pre-emergence (flood test species), scale 0 to 10, 0 is no effect, 10 is complete control
[12] = Rate 500 g/ha, Pre-emergence, flood test species, scale 0 to 10 (0 no effect, 10 complete control)

SMILES: CC(C)N(C(=O)n1oc(=O)n(C(C)C(=O)N(C)C)c1=O)c1ccccc1 (stereo not shown) [Compound 479]
- Bedstraw plant response rating (bedstraw; [1]): 0
- Bedstraw plant response rating (bedstraw; [2]): 0
- Bedstraw plant response rating (bedstraw; [3]): 0
- Bedstraw plant response rating (bedstraw; [4]): 0
- Bedstraw plant response rating (bedstraw; [5]): 0
- Blackgrass plant response rating (blackgrass; [1]): 4
- Blackgrass plant response rating (blackgrass; [6]): 7
- Plant response rating, Blackgrass (blackgrass; [7]): 2
- Plant response rating, Blackgrass (blackgrass; [8]): 6
- Blackgrass plant response rating (blackgrass; [2]): 8
- Blackgrass plant response rating (blackgrass; [3]): 9
- Blackgrass plant response rating (blackgrass; [4]): 0
- Blackgrass plant response rating (blackgrass; [5]): 0
- B. signalgrass plant response rating (surinam grass; Postemergence, Rate 250 g/ha, scale 0 to 10, 0 no effect, 10 complete control): 3
- B. signalgrass plant response rating (surinam grass; [6]): 7
- Plant response rating, B. signalgrass (surinam grass; [7]): 0
- Plant response rating, B. signalgrass (surinam grass; [8]): 5
- B. signalgrass plant response rating (surinam grass; [2]): 6
- B. signalgrass plant response rating (surinam grass; [3]): 9
- B. signalgrass plant response rating (surinam grass; [4]): 0
- B. signalgrass plant response rating (surinam grass; [5]): 2
- Cocklebur plant response rating (cocklebur; [1]): 0
- Cocklebur plant response rating (cocklebur; [6]): 0
- Plant response rating, Cocklebur (cocklebur; [7]): 0
- Plant response rating, Cocklebur (cocklebur; [8]): 0
- Cocklebur plant response rating (cocklebur; [2]): 0
- Cocklebur plant response rating (cocklebur; [4]): 0
- Cocklebur plant response rating (cocklebur; [5]): 0
- Corn plant response rating (corn; [1]): 0
- Corn plant response rating (corn; [6]): 4
- Plant response rating, Corn (corn; [7]): 0
- Plant response rating, Corn (corn; [8]): 0
- Corn plant response rating (corn; [2]): 0
- Corn plant response rating (corn; [3]): 3
- Corn plant response rating (corn; [4]): 0
- Corn plant response rating (corn; [5]): 0
- Crabgrass plant response rating (crabgrass; [1]): 6
- Crabgrass plant response rating (crabgrass; [6]): 9
- Plant response rating, Crabgrass (crabgrass; [8]): 8
- Crabgrass plant response rating (crabgrass; [2]): 9
- Crabgrass plant response rating (crabgrass; [3]): 10
- Crabgrass plant response rating (crabgrass; [4]): 2
- Crabgrass plant response rating (crabgrass; [5]): 3
- Giant foxtail plant response rating (giant foxtail; [1]): 6
- Plant response rating, Giant foxtail (giant foxtail; Preemergence, Rate 62 g/ha): 7
- Plant response rating, Giant foxtail (giant foxtail; Preemergence, Rate 125 g/ha): 9
- Giant foxtail plant response rating (giant foxtail; [2]): 10
- Giant foxtail plant response rating (giant foxtail; [3]): 10
- Giant foxtail plant response rating (giant foxtail; [4]): 0
- Giant foxtail plant response rating (giant foxtail; [5]): 3
- Redroot pigweed plant response rating (pigweed; [1]): 2
- Plant response rating, Redroot pigweed (pigweed; Preemergence, Rate 62 g/ha): 0
- Plant response rating, Redroot pigweed (pigweed; Preemergence, Rate 125 g/ha): 3
- Redroot pigweed plant response rating (pigweed; [2]): 6
- Redroot pigweed plant response rating (pigweed; [3]): 6
- Redroot pigweed plant response rating (pigweed; [4]): 0
- Redroot pigweed plant response rating (pigweed; [5]): 2
- Soybean plant response rating (soybean; [1]): 3
- Plant response rating, Soybean (soybean; Preemergence, Rate 62 g/ha): 0
- Plant response rating, Soybean (soybean; Preemergence, Rate 125 g/ha): 0
- Soybean plant response rating (soybean; [2]): 0
- Soybean plant response rating (soybean; [3]): 0
- Soybean plant response rating (soybean; [4]): 1
- Soybean plant response rating (soybean; [5]): 1
- Sugarbeets plant response rating (sugar beet; [1]): 0
- Plant response rating, Sugarbeets (sugar beet; Preemergence, Rate 62 g/ha): 0
- Plant response rating, Sugarbeets (sugar beet; Preemergence, Rate 125 g/ha): 0
- Sugarbeets plant response rating (sugar beet; [2]): 2
- Sugarbeets plant response rating (sugar beet; [3]): 4
- Sugarbeets plant response rating (sugar beet; [4]): 0
- Sugarbeets plant response rating (sugar beet; [5]): 0
- Velvetleaf plant response rating (velvetleaf; [1]): 0
- Plant response rating, Velvetleaf (velvetleaf; Preemergence, Rate 62 g/ha): 0
- Plant response rating, Velvetleaf (velvetleaf; Preemergence, Rate 125 g/ha): 0
- Velvetleaf plant response rating (velvetleaf; [2]): 1
- Velvetleaf plant response rating (velvetleaf; [3]): 5
- Velvetleaf plant response rating (velvetleaf; [4]): 0
- Velvetleaf plant response rating (velvetleaf; [5]): 0
- Wild oats plant response rating (wild oat; [1]): 0
- Plant response rating, Wild oats (wild oat; Preemergence, Rate 62 g/ha): 0
- Plant response rating, Wild oats (wild oat; Preemergence, Rate 125 g/ha): 4
- Wild oats plant response rating (wild oat; [2]): 5
- Wild oats plant response rating (wild oat; [3]): 7
- Wild oats plant response rating (wild oat; [4]): 0
- Wild oats plant response rating (wild oat; [5]): 0
- Nutsedge plant response rating (purple nutsedge; [1]): 0
- Plant response rating, Nutsedge (purple nutsedge; Preemergence, Rate 62 g/ha): 0
- Plant response rating, Nutsedge (purple nutsedge; Preemergence, Rate 125 g/ha): 0
- Nutsedge plant response rating (purple nutsedge; [2]): 0
- Nutsedge plant response rating (purple nutsedge; [4]): 0
- Nutsedge plant response rating (purple nutsedge; [5]): 0
- Plant response rating, Rice (0 to 10 scale, 0 is no effect, 10 is complete control) (rice; [9]): 0
- Rice plant response rating (0 to 10 scale, 0 is no effect, 10 is complete control) (rice; [10]): 0
- Rice plant response rating (rice; [11]): 0
- Rice plant response rating (rice; [12]): 0
- Plant response rating, S. Flatsedge (0 to 10 scale, 0 is no effect, 10 is complete control) (smallflower flatsedge; [9]): 0
- S. Flatsedge plant response rating (0 to 10 scale, 0 is no effect, 10 is complete control) (smallflower flatsedge; [10]): 0
- S. Flatsedge plant response rating (smallflower flatsedge; [11]): 0
- S. Flatsedge plant response rating (smallflower flatsedge; [12]): 0
- Plant response rating, Barnyardgrass (0 to 10 scale, 0 is no effect, 10 is complete control) (bamyardgrass; [9]): 0
- Barnyardgrass plant response rating (0 to 10 scale, 0 is no effect, 10 is complete control) (bamyardgrass; [10]): 0
- Barnyardgrass plant response rating (bamyardgrass; [11]): 0
- Barnyardgrass plant response rating (bamyardgrass; [12]): 0
